The source made the active and inactive calls. The rule behind the calls is not given here.
How the values were obtained:
hERG (Kv11.1, KCNH2) [1] = target: T1, hERG (Kv11.1, KCNH2) (Homo sapiens, UniProt Q12809); assay: in vitro
Description: MMV: Malaria Box compounds were tested for inhibition of the human ether a go-go related gene (hERG), Kv11.1 channel, using IonWorks 384-well patch clamp electrophysiology at 11.1uM (3 independent assay plates up to 12 cells per concentration).

hERG (Kv11.1, KCNH2) [2] = target: T1, hERG (Kv11.1, KCNH2); assay: in vitro; remark: listed apart in the source
Description: MMV: Malaria Box compounds were tested for inhibition of the human ether a go-go related gene (hERG), Kv11.1 channel, using IonWorks 384-well patch clamp electrophysiology at 1.1uM (3 independent assay plates up to 12 cells per concentration).

T1 sequence (Q12809 whole entry): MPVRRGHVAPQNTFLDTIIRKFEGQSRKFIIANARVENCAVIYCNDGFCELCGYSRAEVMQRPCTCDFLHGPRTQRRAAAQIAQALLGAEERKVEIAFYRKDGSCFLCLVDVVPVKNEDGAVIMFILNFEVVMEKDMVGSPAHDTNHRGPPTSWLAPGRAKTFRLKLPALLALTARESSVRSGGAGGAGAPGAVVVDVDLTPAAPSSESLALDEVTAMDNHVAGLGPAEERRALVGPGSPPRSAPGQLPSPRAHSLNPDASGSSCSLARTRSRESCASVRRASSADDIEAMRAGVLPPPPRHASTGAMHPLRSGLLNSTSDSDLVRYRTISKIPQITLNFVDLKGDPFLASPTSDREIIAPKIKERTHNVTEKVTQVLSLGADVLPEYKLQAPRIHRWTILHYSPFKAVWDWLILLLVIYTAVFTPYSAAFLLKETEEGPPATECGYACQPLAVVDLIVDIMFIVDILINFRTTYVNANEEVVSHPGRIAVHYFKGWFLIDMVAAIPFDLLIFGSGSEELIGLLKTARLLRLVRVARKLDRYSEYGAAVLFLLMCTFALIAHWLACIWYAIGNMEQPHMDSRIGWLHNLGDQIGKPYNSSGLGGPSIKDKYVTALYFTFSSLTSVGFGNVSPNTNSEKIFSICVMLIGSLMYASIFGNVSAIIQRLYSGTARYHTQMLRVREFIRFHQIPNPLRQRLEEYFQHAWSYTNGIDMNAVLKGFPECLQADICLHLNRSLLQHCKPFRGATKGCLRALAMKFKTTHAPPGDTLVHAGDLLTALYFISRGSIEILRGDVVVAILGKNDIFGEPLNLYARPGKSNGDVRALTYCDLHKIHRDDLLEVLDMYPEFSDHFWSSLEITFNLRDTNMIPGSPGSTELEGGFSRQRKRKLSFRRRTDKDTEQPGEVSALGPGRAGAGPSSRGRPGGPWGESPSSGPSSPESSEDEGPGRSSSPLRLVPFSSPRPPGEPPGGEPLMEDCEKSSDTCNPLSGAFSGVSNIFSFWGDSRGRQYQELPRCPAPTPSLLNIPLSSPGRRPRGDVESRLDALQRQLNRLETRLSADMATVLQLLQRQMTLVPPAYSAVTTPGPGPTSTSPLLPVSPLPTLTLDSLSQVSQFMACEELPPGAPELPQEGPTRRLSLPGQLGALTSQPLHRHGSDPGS

Row | SMILES | inhibition at 11.1 µM (hERG (Kv11.1, KCNH2) [1]) | inhibition at 1.1 µM (hERG (Kv11.1, KCNH2) [2]) [%]
1 | O=C(Nc1ccc(Cl)c(Cl)c1)Nc1ccc(Cl)c(Cl)c1 | 103% (active) | 15
2 | CCN1CCCC1CNc1[nH]cnc2c3cc(Cl)ccc3nc1-2 (stereo not given) | 29% | 6
3 | COc1ccc(-c2c(C)nn3c(N)c(C#N)cnc23)cc1OC | 11% (inactive) | 11
4 | COc1ccc2c(c1)C1(Nc3ccccc3-c3nc4ccccc4n31)C(=O)N2 (stereo not given) | 20% (inactive) | 4
5 | COc1cccc(Cn2c(Oc3ccccc3)nc3c2c(=O)n(C)c(=O)n3C)c1 | 26% | -4
6 | N=c1n(CCN2CCCCC2)c2ccccc2n1CC(=O)c1ccc(Cl)c(Cl)c1 | -1% (inactive) | -13
7 | C[n+]1c2ccccc2nc2ccc(NCCO)cc21 | 11% (inactive) | 8
8 | OC(CNCC1CCCO1)Cn1c2ccc(Cl)cc2c2cc(Cl)ccc21 (stereo not given) | 16% (inactive) | 12
9 | COc1ccc(/C=C2/SC(=Nc3ccccc3)NC2=O)cc1 | 27% | 12
10 | O=C(NC1CCN(Cc2ccccc2)CC1)c1cc2nc(-c3ccc(Cl)s3)cc(C(F)(F)F)n2n1 | 60% (active) | 21
11 | Cc1sc(NC(=O)c2ccccc2)c(C(c2cccs2)N2CCN(c3ccccc3)CC2)c1C (stereo not given) | 9% (inactive) | 9
12 | Cc1sc(NC(=O)c2ccco2)c(C(c2cccnc2)N2CCC(Cc3ccccc3)CC2)c1C (stereo not given) | 9% (inactive) | -12
13 | CCOC(=O)c1c(C)n(-c2ccccc2)c2ccc(OC(=O)c3cc(OC)c(OC)c(OC)c3)cc12 | 11% (inactive) | -6
14 | COc1cc(C(=O)Nc2nc3c(cc4c5c(cccc53)CC4)s2)cc(OC)c1OC | 23% (inactive) | 10
15 | Cc1cc(N2CCCC2)nc(Nc2ccc(NC(=O)CCc3ccccc3)cc2)n1 | 116% (active) | 9
16 | O=C(NCC(c1ccsc1)N1CCCCCC1)c1ccc(C(F)(F)F)cc1 (stereo not given) | 94% | 50
17 | COc1ccc(-c2cc3c(SCC(=O)Nc4cc(C(F)(F)F)ccc4Cl)nccn3n2)cc1 | 17% (inactive) | 6
18 | Cc1ccc(-c2cc3c(SCC(=O)Nc4cc(C(F)(F)F)ccc4Cl)nccn3n2)cc1 | 29% | 2
19 | Cc1cc(NC(=O)c2cccc(C(F)(F)F)c2)n(-c2nc(-c3ccc4c(c3)OCO4)cs2)n1 | 6% (inactive) | 12
20 | CCN(CC)CCNc1ncnc2c1[nH]c1ccc(Cl)cc12 | 97% | 99
21 | CN1CCN(c2ncnc3c2[nH]c2ccc(Cl)cc23)CC1 | 92% (active) | 15
22 | CC1(c2ccccc2)Nc2ccccc2-c2nc3ccccc3n21 (stereo not given) | 29% | -10
23 | COc1ccc(CCN2C(=O)c3[nH]nc(-c4cc(Cl)c(C)cc4O)c3C2c2ccccc2F)cc1 (stereo not given) | 5% | 51
24 | COc1cccc(C2(C)Nc3ccccc3-c3nc4ccccc4n32)c1 (stereo not given) | 18% (inactive) | 10
25 | N#Cc1nc(Cc2cccc3ccccc23)oc1N1CCN(C(c2ccccc2)c2ccccc2)CC1 | 13% (inactive) | 15

Row | SMILES | inhibition at 11.1 µM (hERG (Kv11.1, KCNH2) [1]) | inhibition at 1.1 µM (hERG (Kv11.1, KCNH2) [2]) [%]
26 | CC(C)CNC(=O)c1c(N)n(CCc2ccccc2F)c2nc3ccccc3nc12 | -11% (inactive) | 17
27 | O=C(NNc1cc(N2CCCC2)nc(N2CCCC2)n1)c1ccccc1 | 35% | 4
28 | CC(C)(C)CC(C)(C)NCC(O)COc1ccc(Cl)cc1Cl (stereo not given) | 81% (active) | 8
29 | Cc1cccc(-n2ncc3c(O)nc(-n4nc(C)cc4NC(=O)c4cc5ccccc5o4)nc32)c1 | -8% (inactive) | -3
30 | O=C(Nc1ccccc1O)c1ccc(Oc2cccc(C(=O)Nc3ccccc3O)c2)cc1 | 5% (inactive) | -2
31 | OC1=C2C(=Nc3ccccc3SC2c2ccccc2)c2ccccc21 (stereo not given) | 16% (inactive) | 15
32 | FC(F)(F)c1cccc(Nc2nc3ccccc3nc2Nc2cccc(C(F)(F)F)c2)c1 | 8% (inactive) | -4
33 | c1ccc(-c2ccc(-c3nc4ccccc4[nH]3)cc2)cc1 | -8% (inactive) | -2
34 | COc1cccc(NC(=O)[C@H](C(C)C)n2c(=O)[nH]c3ccccc3c2=O)c1 | 17% (inactive) | 2
35 | COc1ccc2nc(N)nc(C)c2c1 | 4% (inactive) | 10
36 | COc1cccc(NC(=O)Cn2c(C)c(C#N)c3ccccc32)c1 | -4% (inactive) | 2
37 | CCC(c1ccccc1)c1nn2c(-c3cccs3)nnc2s1 (stereo not given) | 42% | 8
38 | CC(C)(C)c1ccc(O)c(CNC2CCCCC2)c1 | 35% | 10
39 | CC(Oc1ccc(NC(=O)c2cccs2)cc1)C(=O)c1ccc(Cl)cc1 (stereo not given) | 55% (active) | -4
40 | CCCCNc1nc(NC(C)(C)C)nc(NC(C)(C)C)n1 | 1% (inactive) | -1
41 | COc1ccc(CNC(=O)c2cc3c(=O)n4ccccc4nc3n(CCc3ccccc3)c2=N)cc1 | 45% | 10
42 | CCOC(=O)c1c(NC(=O)c2ccccc2)sc2c(O)c(CN(CC)CC)ccc12 | 23% (inactive) | 4
43 | CCOc1cc(Br)c(C(C)NC(=O)c2cccc(OC)c2)cc1OCC (stereo not given) | 2% (inactive) | -12
44 | CCOc1cc(Cl)c(C(C)NC(=O)c2cccc(OC)c2)cc1OCC (stereo not given) | 9% (inactive) | -3
45 | Cc1cc(Nc2ccc(C)c(Cl)c2)n2nc(C(F)(F)F)nc2n1 | 72% (active) | 23
46 | FC(F)(F)c1cccc(Nc2nc(-c3ccccc3)nc3ncccc23)c1 | 0% (inactive) | -8
47 | CC(=O)c1sc(NC(=O)Nc2ccc(C)cc2C)nc1C | 38% | 7
48 | CCCCOC(=O)c1ccc(Nc2cc(C)nc3ccc(OC)cc23)cc1 | 91% | 65
49 | Cn1c(=O)n(C)c2cc(CNCCNc3ccnc4cc(Cl)ccc34)ccc21 | 60% (active) | 16
50 | CC(NCc1ccccc1)c1cc(Cl)ccc1O (stereo not given) | 35% | -4

Row | SMILES | inhibition at 11.1 µM (hERG (Kv11.1, KCNH2) [1]) | inhibition at 1.1 µM (hERG (Kv11.1, KCNH2) [2]) [%]
51 | Cn1c(C(=O)c2cccc3ccccc23)nc2ccccc21 | 1% (inactive) | -4
52 | O=c1cc(NC2CCN(CCCc3ccccc3)CC2)c2cc(Cl)ccc2o1 | 101% | 89
53 | Oc1ccc(Cl)cc1CNc1nc2ccccc2[nH]1 | 52% (active) | 14
54 | O=C(Nc1ccc(-c2nc3ccccc3[nH]2)cc1)c1ccc(Cl)c(Cl)c1 | 45% | 2
55 | CCOc1cc(Cl)c(C(C)NC(=O)c2ccccc2)cc1OCC (stereo not given) | 7% (inactive) | -6
56 | O=C(Nc1cccc(-c2nc3ccccc3[nH]2)c1)c1cccc(NC(=O)c2ccco2)c1 | 6% (inactive) | -6
57 | COc1ccc(C(=O)Nc2ccc(Cl)cc2C(=O)Nc2ccncc2)cc1 | -3% (inactive) | -6
58 | CCN(CC)CCCNc1ccnc2cc3ccccc3cc12 | 23% (inactive) | -2
59 | Oc1c(C(Nc2ccccn2)c2cccc(Oc3ccccc3)c2)ccc2cccnc12 (stereo not given) | 97% (active) | 20
60 | CCOC(=O)c1cn(CC)c2cc(N3CCCCC3)c(F)cc2c1=O | 25% | -4
61 | CCCc1cc(O)c2c3c(c(=O)oc2c1)CN(C)CC3 | 94% (active) | 46
62 | CC(C)(C)C(=O)Nc1ccc(C(=O)Nc2cccc(-c3nc4ccccc4[nH]3)c2)cc1 | 40% | 8
63 | COc1ccc(-c2nonc2NC(=O)c2cccc(C)c2)cc1OC | -3% (inactive) | 5
64 | OC(CNC1CCCCC1)Cn1c2ccc(I)cc2c2cc(I)ccc21 (stereo not given) | 12% (inactive) | -5
65 | CCc1ccc(CNCC(O)c2ccccc2)cc1 (stereo not given) | 67% (active) | 32
66 | CCOc1ccc(-c2nonc2NC(=O)c2cccc(C)c2)cc1OCC | 0% (inactive) | -1
67 | COc1ccc2c(=O)cc(C(Cl)(Cl)Cl)oc2c1 | 9% (inactive) | 6
68 | CC(C)(C)CC(C)(C)NCC(O)COc1ccc2c(c1)CCC2 (stereo not given) | 62% (active) | 8
69 | Oc1ccc(Br)cc1CN1CCN(Cc2ccc(Cl)cc2)CC1 | 10% (inactive) | 2
70 | CCOc1c(Cl)cc(CNC(C)C(O)c2ccccc2)cc1OC (stereo not given) | 39% | -4
71 | O=c1c2c([nH]c3ccccc13)CCCC2 | 6% (inactive) | 4
72 | CC1CC2=C(CC1CNCCCN(C)C)C(C)(C)CCC2 (stereo not given) | 77% (active) | -3
73 | CCOC(=O)c1cnc2ccc(OC)cc2c1NCc1ccccc1 | 4% (inactive) | -2
74 | Cc1c(C)n(CC(O)CNC2CCCCC2C)c2ccccc12 (stereo not given) | 20% (inactive) | -10
75 | CCOC(=O)c1c[nH]c2c(CC)cccc2c1=O | 5% (inactive) | 10

Reference: ChEMBL document CHEMBL3301458, “MMV Malaria Box hERG screening”
